Consider 27 compounds from patent US11279687B2, “Compounds and compositions for the inhibition of NAMPT” (Valo Health, Inc., priority 2010, dated 2022).

One experiment concerns the target NAMPT (Homo sapiens (Human), UniProt P43490). Put plainly: NAMPT biochemical inhibition assay (NMN quantified by mass spectrometry). The settings on record: NAMPT biochemical inhibition; read-out: Biochem IC50.
Another experiment has as its system A2780 cells. Put plainly: In-vitro cell proliferation assay (SRB), A2780 cells.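 Further: viable cell number read as SRB absorbance, background from media-only wells subtracted, IC50 interpolated from percent inhibition at two bracketing compound concentrations.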 It is filed as cell-based. The settings on record: A2780 cells, 72 hours, SRB, read-out: A2780 IC50.

Where two headings read alike, the source gives them in different places.

NAMPT, sequence (P43490 whole entry): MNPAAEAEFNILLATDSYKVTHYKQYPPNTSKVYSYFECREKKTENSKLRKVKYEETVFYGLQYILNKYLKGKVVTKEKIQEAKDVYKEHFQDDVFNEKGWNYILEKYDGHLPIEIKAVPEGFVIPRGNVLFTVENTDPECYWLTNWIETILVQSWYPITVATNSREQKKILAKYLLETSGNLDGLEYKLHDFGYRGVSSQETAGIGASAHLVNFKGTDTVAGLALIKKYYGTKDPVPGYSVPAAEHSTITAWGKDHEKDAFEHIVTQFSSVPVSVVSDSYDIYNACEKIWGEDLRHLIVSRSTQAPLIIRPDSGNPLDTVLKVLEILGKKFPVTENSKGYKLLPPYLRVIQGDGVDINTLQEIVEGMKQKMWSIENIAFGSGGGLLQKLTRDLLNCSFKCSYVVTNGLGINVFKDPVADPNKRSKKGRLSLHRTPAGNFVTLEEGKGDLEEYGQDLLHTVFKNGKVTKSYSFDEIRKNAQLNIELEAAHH

Turning to `O=C(NCc1cccnc1)Nc1ccc(S(=O)(=O)Nc2ccccc2OC(F)F)cc1` [3-(4-{[2-(difluoromethoxy)phenyl]sulfamoyl}phenyl)-1-(pyridin-3-ylmethyl)urea], the IC50 (commonly the concentration at which inhibition is half-maximal) at NAMPT is 0.6 nM; in the experiment with A2780 cells (Homo sapiens, A2780, 72 h) it was 31 nM.

On to `O=C(NCc1cccnc1)Nc1ccc(S(=O)(=O)Nc2cccc(Cl)c2Cl)cc1` [3-{4-[(2,3-dichlorophenyl)sulfamoyl]phenyl}-1-(pyridin-3-ylmethyl)urea], for which the IC50 worked out at 2 nM on NAMPT and 30 nM in the experiment on A2780 cells (Homo sapiens, A2780, 72 h).

On to `CC(C)c1ccc(S(=O)(=O)c2ccc(NC(=O)NCc3cccnc3)cc2)cc1` [3-(4-{[4-(propan-2-yl)benzene]sulfonyl[phenyl)-1-(pyridin-3-ylmethyl)urea], for which the IC50 is 3 nM at NAMPT and 100 to 1000 nM in the experiment on A2780 cells (Homo sapiens, A2780, 72 h).

Take `O=C(NCc1cccnc1)Nc1ccc(S(=O)(=O)N2CCCN(Cc3ccccc3)CC2)cc1` [1-[4-(4-benzyl-1,4-diazepane-1-sulfonyl)phenyl]-3-(pyridin-3-ylmethyl)urea]: the IC50 on NAMPT came out at 5 nM; with A2780 cells (Homo sapiens, A2780, 72 h), 137 nM.

For the compound `CC(C)C(=O)Nc1cccc(S(=O)(=O)c2ccc(NC(=O)NCc3cccnc3)cc2)c1` [2-methyl-N-{3-[(4-{[(pyridin-3-ylmethyl)carbamoyl]amino}benzene)sulfonyl]phenylJpropanamide], the IC50 on NAMPT is 1.2 nM; in the experiment with A2780 cells it was 10.1 nM.

For the compound `COc1ncc(S(=O)(=O)c2ccc(NC(=O)NCc3cccnc3)cc2)cn1` [3-[4-(2-methoxypyrimidine-5-sulfonyl)phenyl]-1-(pyridin-3-ylmethyl)urea], the IC50 on NAMPT was 8.7 nM; in the experiment on A2780 cells (Homo sapiens, A2780, 72 h), 100 to 1000 nM.

On to `Cc1cc(C)cc(NS(=O)(=O)c2ccc(NC(=O)NCc3cccnc3)cc2)c1` [3-{4-[(3,5-dimethylphenyl)sulfamoyl]phenyl}-1-(pyridin-3-ylmethyl)urea], for which the IC50 on NAMPT came out at 1 nM; with A2780 cells (Homo sapiens, A2780, 72 h) it was 41 nM.

For the compound `O=C(NCc1ccc(Cl)nc1)Nc1ccc(S(=O)(=O)N2CCCCC2)cc1` [3-[(6-chloropyridin-3-yl)methyl]-1-[4-(piperidine-1-sulfonyl)phenyl]urea], the IC50 on NAMPT is 8 nM; with A2780 cells (Homo sapiens, A2780, 72 h) it was above 30000 nM.

`COc1ccc(F)cc1NS(=O)(=O)c1ccc(NC(=O)NCc2cccnc2)cc1` [3-{4-[(5-fluoro-2-methoxyphenyl)sulfamoyl]phenyl]-1-(pyridin-3-ylmethyl)urea]: the IC50 was 1 nM at NAMPT and 33 nM in the experiment with A2780 cells (Homo sapiens, A2780, 72 h).

`O=C(NCc1ccc2ncsc2c1)c1ccc(S(=O)(=O)c2cccc(Cl)c2)cc1` [N-(1,3-benzothiazol-6-ylmethyl)-4-[(3-chlorobenzene)sulfonyl]benzamide]: the IC50 on NAMPT came out at 11400 nM; in the experiment with A2780 cells (Homo sapiens, A2780, 72 h), 9.71 nM.

Turning to `CC(=O)c1ccc(S(=O)(=O)c2ccc(NC(=O)NCc3cccnc3)cc2)cc1` [3-{4-[(4-acetylbenzene)sulfonyl]phenyl}-1-(pyridin-3-ylmethyl)urea], the IC50 is 2 nM on NAMPT and 100 to 1000 nM with A2780 cells (Homo sapiens, A2780, 72 h).

Consider `O=C(NCc1cccnc1)Nc1ccc(S(=O)(=O)N2CCN(c3c(Cl)cncc3Cl)CC2)cc1` [3-{4-[4-(3,5-dichloropyridin-4-yl)piperazine-1-sulfonyl]phenyl}-1-(pyridin-3-ylmethyl)urea], for which the IC50 is 3 nM at NAMPT and 29 nM in the experiment on A2780 cells (Homo sapiens, A2780, 72 h).

In the case of `O=C(NCc1cccnc1)Nc1ccc(S(=O)(=O)c2ccccc2C(F)(F)F)cc1` [1-(pyridin-3-ylmethyl)-3-(4-{[2-(trifluoromethyl)benzene]sulfonyl}phenyl)urea], the IC50 at NAMPT was found to be 3 nM; in the experiment with A2780 cells (Homo sapiens, A2780, 72 h) it was 569 nM.

Take `N#Cc1ccc(S(=O)(=O)c2ccc(NC(=O)NCc3cccnc3)cc2)cc1` [1-{4-[(4-cyanobenzene)sulfonyl]phenyl}-3-(pyridin-3-ylmethyl)urea]: the IC50 on NAMPT is 7.6 nM; in the experiment with A2780 cells (Homo sapiens, A2780, 72 h), 100 to 1000 nM.

Regarding `CC(C)Oc1ccc(S(=O)(=O)c2ccc(NC(=O)NCc3cccnc3)cc2)cc1` [3-(4-{[4-(propan-2-yloxy)benzene]sulfonyl[phenyl)-1-(pyridin-3-ylmethyl)urea], the IC50 at NAMPT was 1.7 nM; with A2780 cells (Homo sapiens, A2780, 72 h), 29.1 nM.

Regarding `Cc1ccc(S(=O)(=O)c2ccc(NC(=O)NCc3cccnc3)cc2)c(C)c1` [3-{4-[(2,4-dimethylbenzene)sulfonyl]phenyl}-1-(pyridin-3-ylmethyl)urea], the IC50 amounted to 18 nM at NAMPT and 967 nM in the experiment on A2780 cells (Homo sapiens, A2780, 72 h).

On to `Cc1ccc(F)c(S(=O)(=O)c2ccc(NC(=O)NCc3cccnc3)cc2)c1` [3-{4-[(2-fluoro-5-methylbenzene)sulfonyl]phenyl}-1-(pyridin-3-ylmethyl)urea], for which the IC50 on NAMPT is 12 nM; with A2780 cells (Homo sapiens, A2780, 72 h) it was above 1000 nM.

Regarding `COc1ccc(NS(=O)(=O)c2ccc(NC(=O)NCc3cccnc3)cc2)c(OC)c1` [3-{4-[(2,4-dimethoxyphenyl)sulfamoyl]phenyl}-1-(pyridin-3-ylmethyl)urea], the 50% inhibitory concentration (IC50) stood at 3 nM at NAMPT and 109 nM in the experiment with A2780 cells (Homo sapiens, A2780, 72 h).

As to `O=C(NCc1cccnc1)Nc1ccc(S(=O)(=O)N2CCC(N3CCCCCC3)CC2)cc1` [1-{4-[4-(azepan-1-yl)piperidine-1-sulfonyl]phenyl}-3-(pyridin-3-ylmethyl)urea], the IC50 amounted to 5 nM at NAMPT and 6 nM with A2780 cells (Homo sapiens, A2780, 72 h).

Consider `O=C(NCc1cccnc1)Nc1ccc(S(=O)(=O)c2ccc(Cl)c(F)c2)cc1` [3-{4-[(4-chloro-3-fluorobenzene)sulfonyl]phenyl}-1-(pyridin-3-ylmethyl)urea], for which the IC50 was determined as 3 nM at NAMPT and 221 nM in the experiment on A2780 cells (Homo sapiens, A2780, 72 h).

`O=C(NCc1cccnc1)Nc1ccc(S(=O)(=O)c2cccc(Br)c2)cc1` [3-{4-[(3-bromobenzene)sulfonyl]phenyl}-1-(pyridin-3-ylmethyl)urea]: the IC50 at NAMPT was 2 nM; with A2780 cells (Homo sapiens, A2780, 72 h) it was 322 nM.

Consider `Cc1ccc(S(=O)(=O)c2ccc(NC(=O)NCc3cccnc3)cc2)s1` [3-[4-(5-methylthiophene-2-sulfonyl)phenyl]-1-(pyridin-3-ylmethyl)urea], for which the IC50 at NAMPT is 3 nM; with A2780 cells (Homo sapiens, A2780, 72 h), 383 nM.

Regarding `Cn1ncc2c(S(=O)(=O)c3ccc(NC(=O)NCc4cccnc4)cc3)cccc21` [3-[4-(1-methyl-1H-indazole-4-sulfonyl)phenyl]-1-(pyridin-3-ylmethyl)urea], the IC50 at NAMPT is 1 nM; in the experiment with A2780 cells (Homo sapiens, A2780, 72 h) it was 59.9 nM.

As to `O=C(NCc1cccnc1)Nc1ccc(S(=O)(=O)N2CC[C@@]3(C2)OC(=O)c2ccccc23)cc1` [1-{4-[(1R)-3-oxo-3H-spiro[2-benzofuran-1,3′-pyrrolidine]-1′-ylsulfonyl]phenyl}-3-(pyridin-3-ylmethyl)urea], the IC50 at NAMPT was 5 nM; with A2780 cells (Homo sapiens, A2780, 72 h), 41 nM.

As to `O=C(NCc1cccnc1)Nc1ccc(S(=O)(=O)Nc2ccccc2N2CCOCC2)cc1` [1-(4-{[2-(morpholin-4-yl)phenyl]sulfamoyl}phenyl)-3-(pyridin-3-ylmethyl)urea], the IC50 at NAMPT stood at 5 nM; in the experiment with A2780 cells (Homo sapiens, A2780, 72 h) it was 11 nM.

In the case of `CCOc1ccc(NS(=O)(=O)c2ccc(NC(=O)NCc3cccnc3)cc2)c(F)c1` [3-{4-[(4-ethoxy-2-fluorophenyl)sulfamoyl]phenyl}-1-(pyridin-3-ylmethyl)urea], the IC50 at NAMPT amounted to 4 nM; in the experiment on A2780 cells (Homo sapiens, A2780, 72 h) it was 157 nM.

Regarding `O=C(NCc1cccnc1)Nc1ccc(S(=O)(=O)Nc2cccc(C(=O)c3ccccc3)c2)cc1` [1-{4-[(3-benzoylphenyl)sulfamoyl]phenyl}-3-(pyridin-3-ylmethyl)urea], the IC50 was 4.4 nM at NAMPT and 1000 to 10000 nM with A2780 cells (Homo sapiens, A2780, 72 h).
